Results as given in ChEMBL document CHEMBL1201862, “PubChem BioAssay data set” (2004).
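Each compound was tested at five concentrations against cells in 96-well plates for 48 hours. GI50: concentration for 50% inhibition of growth.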 The source made the active and inactive calls. Cut-off read from the data, not from the text of the source: active = GI50 up to about 1.1 µM and inactive = higher.

Tests used:
Assay in all cases: DTP human tumour cell line panel, 48 h
SK-MEL-28 = system: SK-MEL-28
CAKI-1 = system: CAKI-1
OVCAR-5 = system: OVCAR-5
SR = system: SR
UACC-257 = system: UACC-257
M14 = system: M14
SK-MEL-5 = system: SK-MEL-5
SK-OV-3 = system: SK-OV-3
HCC 2998 = system: HCC 2998
IGROV-1 = system: IGROV-1
SW-620 = system: SW-620
A498 = system: A498
HT-29 = system: HT-29
SF-268 = system: SF-268
UO-31 = system: UO-31
EKVX = system: EKVX
TK-10 = system: TK-10
MDA-N = system: MDA-N
NCI/ADR-RES = system: NCI/ADR-RES

Measured: GI50

COc1c(Cl)c(Cl)c(OC)c2c1C(=O)C=CC2=O
inactive: SK-MEL-28 17.7 µM | CAKI-1 22.9 µM | OVCAR-5 35.5 µM | SR 10.4 µM | UACC-257 18.1 µM | M14 19.6 µM | SK-MEL-5 34.9 µM | SK-OV-3 76.7 µM | HCC 2998 60.3 µM | IGROV-1 24.7 µM | SW-620 16.8 µM | A498 > 100 µM | HT-29 29.9 µM | SF-268 15.6 µM | UO-31 17.8 µM | EKVX 17.4 µM | TK-10 20.2 µM

O=C(/C=C/c1ccc(Cl)c(Cl)c1)c1ccc2ccccc2c1
inactive: SK-MEL-28 > 100 µM | CAKI-1 > 100 µM | OVCAR-5 > 100 µM | SR 47.9 µM | UACC-257 > 100 µM | M14 > 100 µM | SK-MEL-5 > 100 µM | SK-OV-3 > 100 µM | HCC 2998 > 100 µM | IGROV-1 > 100 µM | SW-620 > 100 µM | A498 > 100 µM | HT-29 > 100 µM | SF-268 > 100 µM | UO-31 > 100 µM | EKVX > 100 µM | TK-10 > 100 µM

CCN(CC)CCC(=O)N1CCc2c([nH]c3ccccc23)C1c1cccnc1 (stereo not drawn)
inactive: SK-MEL-28 > 100 µM | CAKI-1 > 100 µM | OVCAR-5 > 100 µM | SR > 100 µM | UACC-257 > 100 µM | M14 > 100 µM | SK-MEL-5 > 100 µM | SK-OV-3 > 100 µM | HCC 2998 > 100 µM | IGROV-1 > 100 µM | SW-620 > 100 µM | A498 > 100 µM | HT-29 > 100 µM | SF-268 > 100 µM | UO-31 > 100 µM | EKVX > 100 µM | TK-10 > 100 µM

C[N+](C)(C)CC(=O)N/N=C(/C(=O)Nc1ccc(Br)cc1)C1C(=O)NC(=O)NC1=O
inactive: SK-MEL-28 > 100 µM | CAKI-1 > 100 µM | OVCAR-5 > 100 µM | SR > 100 µM | UACC-257 > 100 µM | M14 > 100 µM | SK-MEL-5 > 100 µM | SK-OV-3 > 100 µM | HCC 2998 > 100 µM | IGROV-1 > 100 µM | SW-620 > 100 µM | A498 > 100 µM | HT-29 > 100 µM | SF-268 > 100 µM | UO-31 > 100 µM | EKVX > 100 µM | TK-10 > 100 µM

CCc1n[nH]c(=O)n1/N=C/c1c(O)ccc2ccccc12
inactive: SK-MEL-28 > 100 µM | MDA-N > 100 µM | NCI/ADR-RES > 100 µM | OVCAR-5 > 100 µM | SR > 100 µM | UACC-257 > 100 µM | M14 > 100 µM | SK-MEL-5 > 100 µM | SK-OV-3 > 100 µM | HCC 2998 > 100 µM | IGROV-1 > 100 µM | SW-620 > 100 µM | SF-268 > 100 µM | UO-31 > 100 µM | EKVX > 100 µM | TK-10 > 100 µM

CC[C@]1(O)C(=O)OCc2c1cc1n(c2=O)Cc2cc3c(N)cccc3nc2-1
inactive: SK-MEL-28 > 100 µM | CAKI-1 > 100 µM | OVCAR-5 > 100 µM | SR > 100 µM | UACC-257 > 100 µM | M14 > 100 µM | SK-MEL-5 > 100 µM | SK-OV-3 > 100 µM | HCC 2998 > 100 µM | IGROV-1 > 100 µM | SW-620 > 100 µM | A498 > 100 µM | HT-29 > 100 µM | SF-268 > 100 µM | UO-31 > 100 µM | EKVX > 100 µM | TK-10 > 100 µM

C[N+](C)(C)CCc1ccccc1
inactive: SK-MEL-28 > 100 µM | CAKI-1 > 100 µM | OVCAR-5 > 100 µM | SR > 100 µM | UACC-257 > 100 µM | M14 > 100 µM | SK-MEL-5 > 100 µM | SK-OV-3 > 100 µM | HCC 2998 > 100 µM | IGROV-1 > 100 µM | SW-620 > 100 µM | A498 > 100 µM | HT-29 > 100 µM | SF-268 > 100 µM | UO-31 > 100 µM | EKVX > 100 µM | TK-10 > 100 µM

O=c1[nH]c2[nH]c(-c3ccc(Br)cc3)cc2c2ccccc12
inactive: SK-MEL-28 > 100 µM | CAKI-1 61.1 µM | MDA-N > 100 µM | NCI/ADR-RES 50.1 µM | OVCAR-5 > 100 µM | SR 11.3 µM | UACC-257 > 100 µM | SK-MEL-5 > 100 µM | HCC 2998 > 100 µM | IGROV-1 > 100 µM | SW-620 > 100 µM | A498 > 100 µM | HT-29 35.6 µM | SF-268 86.9 µM | UO-31 > 100 µM | EKVX 5.58 µM | TK-10 52 µM

Cc1ccc(C(=O)O/N=C2/CCCC/C2=C\c2ccccc2)cc1
inactive: SK-MEL-28 12.7 µM | CAKI-1 63.2 µM | OVCAR-5 81.1 µM | SR > 100 µM | UACC-257 > 100 µM | M14 > 100 µM | SK-MEL-5 37.2 µM | SK-OV-3 > 100 µM | HCC 2998 > 100 µM | IGROV-1 42.9 µM | SW-620 34 µM | HT-29 43.5 µM | SF-268 13.2 µM | UO-31 17.7 µM | EKVX > 100 µM | TK-10 > 100 µM

CC1CC(N)=Nc2ccccc2N1Cc1ccccc1 (stereo not drawn)
inactive: SK-MEL-28 11.6 µM | CAKI-1 12.2 µM | MDA-N 18 µM | NCI/ADR-RES 15.1 µM | OVCAR-5 31.8 µM | UACC-257 12.9 µM | M14 15.6 µM | SK-MEL-5 14.7 µM | SK-OV-3 13.2 µM | IGROV-1 7.6 µM | SW-620 12.6 µM | A498 11.2 µM | HT-29 14.4 µM | SF-268 13.6 µM | UO-31 21.9 µM | EKVX 22.1 µM | TK-10 15 µM

O=C(CC(=O)n1nc(-c2ccccc2)c(/N=N/c2ccc([N+](=O)[O-])cc2)c1-c1ccccc1)Nc1ccc(Cl)cc1
inactive: SK-MEL-28 17.9 µM | CAKI-1 20 µM | OVCAR-5 26.5 µM | SR 22.4 µM | UACC-257 34.8 µM | M14 13.5 µM | SK-MEL-5 3.23 µM | SK-OV-3 18.8 µM | HCC 2998 20.8 µM | IGROV-1 36.4 µM | SW-620 21.6 µM | HT-29 12.5 µM | SF-268 13.5 µM | UO-31 11.9 µM | EKVX 26.7 µM | TK-10 22.6 µM

C(=C\c1c2oc(-c3ccccc3)cc(-c3ccccc3)c-2c2ccccc12)/C=C1\c2ccccc2-c2c(-c3ccccc3)cc(-c3ccccc3)[o+]c21.[O-][Cl+3]([O-])([O-])[O-]
inactive: SK-MEL-28 > 100 µM | OVCAR-5 > 100 µM | SR > 100 µM | UACC-257 > 100 µM | M14 37 µM | SK-MEL-5 > 100 µM | SK-OV-3 > 100 µM | HCC 2998 > 100 µM | IGROV-1 > 100 µM | SW-620 > 100 µM | A498 > 100 µM | HT-29 > 100 µM | SF-268 > 100 µM | UO-31 > 100 µM | EKVX > 100 µM | TK-10 > 100 µM

CC(SC(=S)N1CCOCC1)c1cc2oc(=O)n(C)c2cc1Cl (stereo not drawn)
inactive: SK-MEL-28 > 100 µM | CAKI-1 > 100 µM | OVCAR-5 > 100 µM | SR 30.4 µM | UACC-257 74.5 µM | M14 > 100 µM | SK-MEL-5 62.7 µM | SK-OV-3 > 100 µM | HCC 2998 > 100 µM | IGROV-1 > 10 µM | SW-620 > 10 µM | HT-29 > 100 µM | SF-268 > 100 µM | UO-31 > 100 µM | EKVX > 100 µM | TK-10 > 100 µM

CN(C)C=C1C(=O)N(C)C(=O)N(C)C1=O
inactive: SK-MEL-28 > 100 µM | CAKI-1 > 100 µM | OVCAR-5 > 100 µM | SR > 100 µM | UACC-257 > 100 µM | M14 > 100 µM | SK-MEL-5 > 100 µM | HCC 2998 > 100 µM | SW-620 > 100 µM | A498 > 100 µM | HT-29 > 100 µM | UO-31 > 100 µM | EKVX > 100 µM | TK-10 > 100 µM

Cc1ccc(S(=O)(=O)c2ccc(C)cc2[N+](=O)[O-])cc1
inactive: SK-MEL-28 > 100 µM | CAKI-1 95.9 µM | OVCAR-5 > 100 µM | SR 79.4 µM | UACC-257 28.8 µM | M14 > 100 µM | SK-MEL-5 24.4 µM | SK-OV-3 > 100 µM | HCC 2998 > 100 µM | IGROV-1 > 100 µM | SW-620 > 100 µM | A498 19.4 µM | HT-29 > 100 µM | SF-268 > 100 µM | UO-31 > 100 µM | EKVX > 100 µM | TK-10 > 100 µM

C=C/C=C(\NC(=O)C(Cl)(Cl)Cl)[Si](C)(C)C
inactive: SK-MEL-28 > 100 µM | OVCAR-5 > 100 µM | SR > 100 µM | UACC-257 > 100 µM | M14 > 100 µM | SK-MEL-5 > 100 µM | SK-OV-3 > 100 µM | HCC 2998 > 100 µM | IGROV-1 > 100 µM | SW-620 > 100 µM | A498 > 100 µM | HT-29 > 100 µM | SF-268 > 100 µM | UO-31 > 100 µM | EKVX > 100 µM | TK-10 > 100 µM
